In patent EP2951180B1, “2,6,7,8 SUBSTITUTED PURINES AS HDM2 INHIBITORS” (Merck Sharp & Dohme Corp., priority 2013, dated 2014) one finds IC50 and inhibition data, which are given here for 25 compounds.

Each structure is given as a SMILES string. Like-named read-outs stand apart in the source and are kept apart here.

The assay concerns the target T1, HDM2 (Homo sapiens, UniProt Q00987).
T1 construct: Thioredoxin (N); made in house; host or cells: E. coli strain BL21(DE3)Rosetta
Briefly: HDM2 FRET assay (inhibition of binding of FITC labeled p53-pocket peptide to HDM2). The conditions noted are these: for IC50: read-out: FRET IC50. A digest of the protocol: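 Signal is read as the 520/495 nm emission ratio and converted to percent inhibition; nonlinear sigmoidal regression yields IC50. The assay mixes HDM2 (0.5 nM), FITC-p53 peptide (3 nM) and Tb anti-His antibody (0.25 nM) at 0.1% DMSO.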

[1] abbreviates: 0.5 nM HDM2 (residues 17 to 125), 3nM peptide, two hour incubation at room temperature.

T1 sequence (Q00987 17-125): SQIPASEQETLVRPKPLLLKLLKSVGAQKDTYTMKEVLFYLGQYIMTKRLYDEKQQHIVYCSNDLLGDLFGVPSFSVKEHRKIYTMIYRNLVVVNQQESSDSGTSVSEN

As for `CCC1CCC(Cn2c(-c3cc(C(C)C)ccn3)nc3nc(-c4noc(=O)[nH]4)nc(N[C@H](C)C4CCC4)c32)C1` (stereo partly drawn) [Example 18.4, 3-(6-(((R)-1-cyclobutylethyl)amino)-7-((3-ethylcyclopentyl)methyl) -8-(4-isopropylpyridin-2-yl)-7H-purin-2-yl)-1,2,4-oxadiazol-5(4H)-one], the IC50 (in general, the concentration at which inhibition is half-maximal) (Table 18) came out at 131 nM.
With `C[C@@H](Nc1nc(C(=O)O)nc2nc(C(=O)N3CCCC(C)(C)C3)n(Cc3ccc(C(F)(F)F)cc3)c12)C1CCC1` [Example 10.21, (R)-6-((1-Cyclobutylethyl)amino)-8-(3,3-dimethylpiperidine-1-carbonyl)-7-(4-(trifluoromethyl)benzyl)-7H-purine-2-carboxylic acid], the IC50 (Table 10) is 22.3 nM.
As for `CC[C@H](C)Nc1nc(C(=O)O)nc2nc(-c3cccc(C)c3)n(Cc3ccc(C(F)(F)F)cc3)c12` [Example 6.61, 8-(3-methylphenyl)-6-{[(1S)-1-methylpropyl]amino}-7-[4-(trifluoromethyl)benzyl]-7H-purine-2-carboxylic acid], the inhibition at 1 µM (read-out: inh. at 1000 nM (FRET)) is 41%.
With `Cc1cccc(-c2nc3nc(C(=O)O)nc(NC4CCC(CO)CC4)c3n2Cc2ccc(C(F)(F)F)cc2)c1` (stereo not shown) [Example 6.40, 6-{[4-(hydroxymethyl)cyclohexyl]amino}-8-(3-methylphenyl)-7-[4-(trifluoromethyl)benzyl]-7H-purine-2-carboxylic acid], for the setting “Table 6”, the IC50 was found to be 925 nM.
As for `COC(C)(c1ccccc1F)c1nc2nc(-c3noc(=O)[nH]3)nc(-c3cncc(Cl)c3)c2n1C[C@H]1CC[C@H](C)CC1` (single isomer, unassigned) [Example 23.49, 3-{6-(5-chloropyridin-3-yl)-8-[1-(2-fluorophenyl)-1-methoxyethyl]-7-[(trans-4-methylcyclohexyl)methyl]-7H-purin-2-yl}-1,2,4-oxadiazol-5(4H)-one], the half-maximal inhibitory concentration (IC50) (Table 23) stood at 0.888 nM.
As for `C[C@@H](Nc1nc(C(=O)O)nc2nc(N3CCCC3c3cccc(F)c3)n(C[C@H]3CC[C@H](C)CC3)c12)C1CCC1` (stereo partly drawn) [Example 11.28, 6-{[(1R)-1-cyclobutylethyl]amino}-8-[2-(3-fluorophenyl)pyrrolidin-1-yl]-7-[(trans-4-methylcyclohexyl)methyl]-7H-purine-2-carboxylic acid], for the setting “Table 11”, the 50% inhibitory concentration (IC50) turned out to be 1.52 nM.
Turning to `C[C@@H](Nc1nc(-c2noc(=O)[nH]2)nc2nc(C3(c4ccccn4)CC3)n(C[C@H]3CC[C@H](C)CC3)c12)C1CCC1` [Example 22.10, 3-[6-{[(1R)-1-cyclobutylethyl]amino}-7-[(trans-4-methylcyclohexyl)methyl]-8-(1-pyridin-2-ylcyclopropyl)-7H-purin-2-yl]-1,2,4-oxadiazol-5(4H)-one], the IC50 (Table 22) worked out at 6.29 nM.
Regarding `CCCCCN(C)c1nc(C(=O)O)nc2nc(-c3cccc(C)c3)n(Cc3ccc(C(F)(F)F)cc3)c12` [Example 6.91, 6-[methyl(pentyl)amino] -8-(3-methylphenyl)-7-[4-(trifluoromethyl)benzyl]-7H-purine-2-carboxylic acid], the IC50 (Table 6) turned out to be 731 nM.
Take `C[C@@H](Nc1nc(-c2noc(=O)[nH]2)nc2nc(CCc3ccccc3)n(C[C@H]3CC[C@H](C)CC3)c12)C1CCC1` [Example 21.24, 3-[6-{[(1R)-1-cyclobutylethyl]amino}-7-[(trans-4-methylcyclohexyl)methyl]-8-(2-phenylethyl)-7H-purin-2-yl]-1,2,4-oxadiazol-5(4H)-one]: for the setting “Table 21”, the concentration for half-maximal inhibition (IC50) is 8.02 nM.
In the case of `CC(C)CC(=O)N(C)c1nc2nc(C(=O)O)nc(N[C@H](C)C3CCC3)c2n1Cc1ccc(C(F)(F)F)cc1` [Example 10.3, (R)-6-((1-cyclobutylethyl)amino)-8-(N,3-dimethylbutanamido)-7-(4-(trifluoromethyl)benzyl)-7H-purine-2-carboxylic acid], the concentration for half-maximal inhibition (IC50) (Table 10) stood at 69.8 nM.
Regarding `C[C@H]1CC[C@H](Cn2c(N3CCOCC34CCC4)nc3nc(-c4noc(=O)[nH]4)nc(-c4cncc(Cl)c4)c32)CC1` [Example 16.144, 3-[6-(5-chloropyridin-3-yl)-7-[(trans-4-methylcyclohexyl)methyl]-8-(8-oxa-5-azaspiro[3.5]non-5-yl)-7H-purin-2-yl]-1,2,4-oxadiazol-5(4H)-one], the IC50 under setting [1] is 19.1 nM.
Regarding `C[C@H]1CC[C@H](Cn2c(N3CCOC[C@H]3c3ccccc3)nc3nc(-c4noc(=O)[nH]4)nc(-c4cccc(Cl)c4)c32)CC1` [Example 16.18, 3-{6-(3-chlorophenyl)-7-[(trans-4-methylcyclohexyl)methyl]-8-[(3R)-3-phenylmorpholin-4-yl]-7H-purin-2-yl}-1,2,4-oxadiazol-5(4H)-one], the half-maximal inhibitory concentration (IC50) under setting [1] came to 1.27 nM.
The same measure, in the same setting: as for `C[C@H]1COCCN1c1nc2nc(-c3noc(=O)[nH]3)nc(-c3cccc(Cl)c3)c2n1C[C@H]1CC[C@H](C)CC1` [Example 16.2, 3-(6-(3-chlorophenyl)-7-(((trans)-4-methylcyclohexyl)methyl)-8-((S)-3-methylmorpholino)-7H-purin-2-yl)-1,2,4-oxadiazol-5(4H)-one], the figure is 106 nM.
With `C[C@H]1CC[C@H](Cn2c(C3(c4ccccc4)CCC3)nc3nc(-c4n[nH]c(=O)o4)nc(-c4cc(Cl)c[n+]([O-])c4)c32)CC1` [Example 20.13, 5-[6-(5-chloro-1-oxidopyridin-3-yl)-7-[(trans-4-methylcyclohexyl)methyl]-8-(1-phenylcyclobutyl)-7H-purin-2-yl]-1,3,4-oxadiazol-2(3H)-one], where the note is “Table 20”, the IC50 is 22.8 nM.
On to `C[C@@H](Nc1nc(-c2noc(=O)[nH]2)nc2nc(N3CCOC[C@H]3c3ccccn3)n(C[C@H]3CC[C@H](C)CC3)c12)C1CCC1` [Example 11.142, 3-(6-{[(1R)-1-cyclobutylethyl]amino}-7-[(trans-4-methylcyclohexyl)methyl]-8-[(3R)-3-pyridin-2-ylmorpholin-4-yl]-7H-purin-2-yl)-1,2,4-oxadiazol-5(4H)-one], for which, under “Table 11”, the 50% inhibitory concentration (IC50) is 0.774 nM.
The same measure, in the same setting: as for `C[C@@H](Nc1nc(-c2noc(=O)[nH]2)nc2nc(N3CCCC3c3ccccc3)n(C[C@H]3CC[C@H](C)CC3)c12)C1CCC1` (single isomer, unassigned) [Example 11.135], the figure is 2.08 nM.
As for `C=C(c1nc2nc(-c3noc(=O)n3C)nc(N[C@H](C)C3CCC3)c2n1C[C@H]1CC[C@H](C)CC1)C(C)(C)C` [Example 22.33, 3-(6-{[(1R)-1-cyclobutylethyl]amino}-8-(2,2-dimethyl-1-methylidenepropyl)-7-[(trans-4-methylcyclohexyl)methyl] -7H-purin-2-yl)-4-methyl-1,2,4-oxadiazol-5(4H)-one], the IC50 (Table 22) came to 291 nM.
Take `C[C@@H](Nc1nc(-c2n[nH]c(=O)n2C)nc2nc(N3CCOC[C@H]3c3ccccc3)n(C[C@H]3CC[C@H](C)CC3)c12)C1CCC1` [Example 12.15, 5-(6-{[(1R)-1-cyclobutylethyl]amino}-7-[(trans-4-methylcyclohexyl)methyl]-8-[(3R)-3-phenylmorpholin-4-yl]-7H-purin-2-yl)-4-methyl-2,4-dihydro-3H-1,2,4-triazol-3-one]: the half-inhibitory concentration (IC50) under setting [1] came out at 14.5 nM.
Regarding `C[C@@H](Nc1nc(S(=O)(=O)CCO)nc2nc(N3CCOC[C@H]3c3ccccc3)n(C[C@H]3CC[C@H](C)CC3)c12)C1CCC1` [Example 14.18, 2-[(6-{[(1R)-1-cyclobutylethyl]amino} -7-[(trans-4-methylcyclohexyl)methyl]-8-[(3R)-3-phenylmorpholin-4-yl]-7H-purin-2-yl)sulfonyl]ethanol], the 50% inhibitory concentration (IC50) under setting [1] was 6.94 nM.
`COC1CCN(c2nc3nc(-c4noc(=O)[nH]4)nc(N[C@H](C)C4CCC4)c3n2C[C@H]2CC[C@H](C)CC2)C1` (stereo partly drawn) [Example 11.114, 3-(6-{[(1R)-1-cyclobutylethyl]amino}-8-(3-methoxypyrrolidin-1-yl)-7-[(trans-4-methylcyclohexyl)methyl]-7H-purin-2-yl)-1,2,4-oxadiazol-5(2H)-one]: where the note is “Table 11”, the IC50 was determined as 52.9 nM.
Consider `C[C@@H](Nc1nc(-c2noc(=O)[nH]2)nc2nc(C(C)(C)O)n(C[C@H]3CC[C@H](C)CC3)c12)C1CCC1` [Example 22.44, 3-(6-{[(1R)-1-cyclobutylethyl]amino}-8-(1-hydroxy-1-methylethyl)-7-[(trans-4-methylcyclohexyl)methyl] -7H-purin-2-yl)-1,2,4-oxadiazol-5(4H)-one], for which the concentration for half-maximal inhibition (IC50) (Table 22) came to 20.5 nM.
For `C[C@@H](Nc1nc(C(=O)O)nc2nc(C(=O)Nc3ccccc3)n(Cc3ccc(C(F)(F)F)cc3)c12)C1CCC1` [Example 10.20, (R)-6-((1-Cyclobutylethyl)amino)-8-(phenylcarbamoyl)-7-(4-(trifluoromethyl)benzyl)-7H-purine-2-carboxylic acid], the 50% inhibitory concentration (IC50) (Table 10) was 189 nM.
In the case of `CNC(=O)CC[C@@H](Nc1nc(C(=O)O)nc2nc(-c3cccc(C)c3)n(Cc3ccc(C(F)(F)F)cc3)c12)C1CCC1` [Example 7.13, 6-{[(1R)-1-cyclobutyl-4-(methylamino)-4-oxobutyl]amino}-8-(3-methylphenyl)-7-[4-(trifluoromethyl)benzyl]-7H-purine-2-carboxylic acid], for the setting “Table 7”, the IC50 turned out to be 102 nM.
Regarding `C[C@@H](Nc1nc(-c2noc(=O)[nH]2)nc2nc(N3CCCC3C3CCCCC3)n(Cc3ccc(C(F)(F)F)cc3)c12)C1CCC1` (stereo partly drawn) [Example 9.103, 3-(6-{[(1R)-1-cyclobutylethyl]amino}-8-(2-cyclohexylpyrrolidin-1-yl)-7-[4-(trifluoromethyl)benzyl]-7H-purin-2-yl)-1,2,4-oxadiazol-5(4H)-one], under “Table 9”, the IC50 was 31.9 nM.
As for `CC(c1ccccc1F)c1nc2nc(-c3noc(=O)[nH]3)nc(N[C@H](C)C3CCC3)c2n1C[C@H]1CC[C@H](C)CC1` (single isomer, unassigned) [Example 21.35], the half-maximal inhibitory concentration (IC50) (Table 21) was 2.03 nM.
